Results as given in PubChem BioAssay AID180 (DTP/NCI, 2004).

Test system: BDF1 mice, Adenocarcinoma 755 s.c., tumor weight T/C
Experiment: NCI In Vivo Anticancer Drug Screen. Data for tumor model Adenocarcinoma 755 (subcutaneous) in B6D2F1 (BDF1) mice
Conditions: endpoint: mean tumor weight, higher = larger tumour
In short: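 In vivo antitumor screen on a transplantable tumor line. Result equals the measure in compound-treated animals divided by the same measure in vehicle controls.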

[1] = dose: 125.0 mg/kg/injection, schedule: Q01DX011 (ip), vehicle: methylcellulose (MC)
[2] = dose: 250.0 mg/kg/injection, schedule: Q01DX011 (ip), vehicle: methylcellulose (MC)

## CCC(C)Cn1cnc2c(Sc3c([N+](=O)[O-])ncn3C)nc(N)nc21 (stereo unspecified)
dose: 11.0 mg/kg/injection, schedule: Q01DX011 (ip), vehicle: methylcellulose (MC)
  T/C: 58 % of control
dose: 33.0 mg/kg/injection, schedule: Q01DX011 (ip), vehicle: methylcellulose (MC)
  T/C: 10 % of control
dose: 100.0 mg/kg/injection, schedule: Q01DX011 (ip), vehicle: methylcellulose (MC)
  T/C: 1 % of control

## CC1CC2(C)C(=CC1=O)CCC1C3CCC(C)(O)C3(C)CC(O)C12F (stereo unspecified)
dose: 200.0 mg/kg/injection, schedule: Q01DX011 (sc), vehicle: steriod suspending solution
  T/C: 106 % of control
dose: 400.0 mg/kg/injection, schedule: Q01DX011 (sc), vehicle: steriod suspending solution
  T/C: 92 % of control

## Nc1nc(Cl)cc(Nc2ccccc2Br)n1
dose: 15.0 mg/kg/injection, schedule: Q01DX011 (ip), vehicle: methylcellulose (MC)
  T/C: 66 % of control
dose: 31.0 mg/kg/injection, schedule: Q01DX011 (ip), vehicle: methylcellulose (MC)
  T/C: 87 % of control
dose: 62.0 mg/kg/injection, schedule: Q01DX011 (ip), vehicle: methylcellulose (MC)
  T/C: 88 % of control
[1]
  T/C: 79 % of control
[2]
  T/C: 121 % of control

## C[C@]12CCC(=O)C=C1CC[C@@H]1[C@@H]2C(=O)C[C@@]2(C)[C@H]1CC[C@]2(O)C(=O)COS(=O)(=O)O
dose: 5.0 mg/kg/injection, schedule: Q01DX011 (sc), vehicle: steriod suspending solution
  T/C: 100 % of control
dose: 50.0 mg/kg/injection, schedule: Q01DX011 (sc), vehicle: steriod suspending solution
  T/C: 91 % of control
dose: 100.0 mg/kg/injection, schedule: Q01DX011 (sc), vehicle: steriod suspending solution
  T/C: 57 % of control

## c1ncc2[nH]cnc2n1
dose: 27.33 mg/kg/injection, schedule: Q01DX011 (ip), vehicle: carboxymethylcellulose (CMC)
  T/C: 71 % of control
dose: 49.34 mg/kg/injection, schedule: Q01DX011 (ip), vehicle: carboxymethylcellulose (CMC)
  T/C: 80 % of control
dose: 54.67 mg/kg/injection, schedule: Q01DX011 (ip), vehicle: carboxymethylcellulose (CMC)
  T/C: 82 % of control
dose: 62.5 mg/kg/injection, schedule: Q01DX011 (ip), vehicle: methylcellulose (MC)
  T/C: 68 % of control
dose: 98.68 mg/kg/injection, schedule: Q01DX011 (ip), vehicle: carboxymethylcellulose (CMC)
  T/C: 71 % of control
dose: 109.35 mg/kg/injection, schedule: Q01DX011 (ip), vehicle: carboxymethylcellulose (CMC)
  T/C: 91 % of control
[1]
  T/C: 57 % of control
dose: 173.2 mg/kg/injection, schedule: Q01DX011 (ip), vehicle: carboxymethylcellulose (CMC)
  T/C: 101 % of control
dose: 197.35 mg/kg/injection, schedule: Q01DX011 (ip), vehicle: carboxymethylcellulose (CMC)
  T/C: 69 % of control
dose: 218.7 mg/kg/injection, schedule: Q01DX011 (ip), vehicle: carboxymethylcellulose (CMC)
  T/C: 123 % of control
[2]
  T/C: 54 % of control
dose: 288.66 mg/kg/injection, schedule: Q01DX011 (ip), vehicle: carboxymethylcellulose (CMC)
  T/C: 72 % of control
dose: 394.7 mg/kg/injection, schedule: Q01DX011 (ip), vehicle: carboxymethylcellulose (CMC)
  T/C: 35 % of control
